Our source for the IC50 values is patent publication US10323022B2, “Pyrrolidinyl urea, pyrrolidinyl thiourea and pyrrolidinyl guanidine compounds as TrkA kinase inhibitors” (Array BioPharma Inc., priority 2011, dated 2019).

Structures can show the parent of a compound that is named as a salt.

What is called IC50 is the concentration needed to halve the response being measured. Read a high IC50 as weaker potency.

TrkA, sequence (P04629 33-796): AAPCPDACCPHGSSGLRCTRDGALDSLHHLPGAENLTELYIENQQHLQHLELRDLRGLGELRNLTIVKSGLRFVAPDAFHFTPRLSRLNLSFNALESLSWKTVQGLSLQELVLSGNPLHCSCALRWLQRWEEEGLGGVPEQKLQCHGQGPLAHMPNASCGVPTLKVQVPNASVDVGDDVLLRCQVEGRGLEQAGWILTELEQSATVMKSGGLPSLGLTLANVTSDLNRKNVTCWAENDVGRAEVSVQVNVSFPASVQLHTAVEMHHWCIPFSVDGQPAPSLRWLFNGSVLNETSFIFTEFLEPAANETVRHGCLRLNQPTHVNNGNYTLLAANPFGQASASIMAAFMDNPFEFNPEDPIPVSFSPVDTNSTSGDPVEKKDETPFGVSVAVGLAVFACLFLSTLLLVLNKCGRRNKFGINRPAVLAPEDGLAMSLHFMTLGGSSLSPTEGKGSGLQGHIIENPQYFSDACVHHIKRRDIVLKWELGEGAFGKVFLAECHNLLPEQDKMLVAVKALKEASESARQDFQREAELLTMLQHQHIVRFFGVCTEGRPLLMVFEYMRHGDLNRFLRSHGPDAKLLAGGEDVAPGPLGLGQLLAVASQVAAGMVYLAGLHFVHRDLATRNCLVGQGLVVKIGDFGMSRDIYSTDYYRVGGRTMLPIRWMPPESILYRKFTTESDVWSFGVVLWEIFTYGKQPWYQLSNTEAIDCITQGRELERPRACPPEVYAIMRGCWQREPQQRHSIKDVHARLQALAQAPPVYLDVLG

This assay addresses TrkA (Homo sapiens (Human), UniProt P04629). Description: TrkA Omnia Assay. It counts as biochemical. The conditions noted are these: averaged IC50; 20 nM enzyme, 500 μM ATP, 10 μM peptide substrate. In outline:
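Continuous fluorescent kinase read-out (ex 360 nm, em 485 nm) over 70 min, with initial rates fitted to 4- or 5-parameter logistic curves for IC50. Final conditions: 500 μM ATP, 10 μM Omnia Tyr Peptide #4, 20 nM TrkA, MOPS pH 7.5 buffer with MgCl2 and Triton X-100; enzyme and compound preincubated 10 min at ambient temperature.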
As for `COCCN1C[C@@H](NC(=O)Nc2c(C)c(-c3cnn(C)c3)nn2-c2ccccc2)[C@H](c2cccc(Cl)c2)C1` (relative stereo) [Example 296, 1-(trans-4-(3-chlorophenyl)-1-(2-methoxyethyl)pyrrolidin-3-yl)-3-(1′,4-dimethyl-1-phenyl-1H,1′H-[3,4′-bipyrazol]-5-yl)urea], the half-maximal inhibitory concentration (IC50) was less than 100 nM.

As to `COCCN1C[C@@H](NC(=O)Nc2c(C)c(-c3cnn(C)c3)nn2-c2ccc(F)cc2)[C@H](c2ccc(F)c(F)c2)C1` [Example 312, 1-((3S,4R)-4-(3,4-difluorophenyl)-1-(2-methoxyethyl)pyrrolidin-3-yl)-3-(1-(4-fluorophenyl)-1′,4-dimethyl-1H,1′H-[3,4′-bipyrazol]-5-yl)urea], the IC50 is less than 100 nM.

`COCCN1C[C@@H](NC(=O)Nc2cc(-c3ccccc3)nn2C)[C@H](c2cccc(C(F)(F)F)c2)C1` [Example 109, 1-((3S,4R)-1-(2-methoxy-ethyl)-4-(3-(trifluoro-methyl)phenyl)pyrrolidin-3-yl)-3-(1-methyl-3-phenyl-1H-pyrazol-5-yl) urea] registered an IC50 of 100 to 1000 nM.

Take `COCCN1C[C@@H](NC(=O)Nc2cc(-c3ccccc3)nn2-c2ccccc2)[C@H](c2ccccc2)C1` (relative stereo) [Example 10, 1-(1,3-diphenyl-1H-pyrazol-5-yl)-3-(trans-1-(2-methoxyethyl)-4-phenylpyrrolidin-3-yl)urea]: the IC50 is less than 100 nM.

Consider `COCCN1C[C@@H](NC(=O)Nc2c(C)c(-c3nnc(C)o3)nn2-c2ccccc2)[C@H](c2ccc(F)c(F)c2)C1` [Example 297, 1-((3S,4R)-4-(3,4-difluorophenyl)-1-(2-methoxyethyl)pyrrolidin-3-yl)-3-(4-methyl-3-(5-methyl-1,3,4-oxadiazol-2-yl)-1-phenyl-1H-pyrazol-5-yl)urea], for which the half-inhibitory concentration (IC50) is less than 100 nM.

On to `COCCN1C[C@@H](NC(=O)Nc2c(C)c(OCCNC(C)=O)nn2-c2ccccc2)[C@H](c2ccc(F)c(F)c2)C1` [Example 545, N-(2-((5-(3-((3S,4R)-4-(3,4-difluorophenyl)-1-(2-methoxyethyl)pyrrolidin-3-yl)ureido)-4-methyl-1-phenyl-1H-pyrazol-3-yl)oxy)ethyl)acetamide], for which the IC50 was less than 100 nM.

In the case of `CNC(=O)c1nn(-c2ccccc2)c(NC(=O)N[C@@H]2CN(CCOC)C[C@H]2c2ccc(F)cc2)c1C` [Example 292, 5-(3-((3S,4R)-4-(4-fluorophenyl)-1-(2-methoxyethyl)pyrrolidin-3-yl)ureido)-N,4-dimethyl-1-phenyl-1H-pyrazole-3-carboxamide], the IC50 was less than 100 nM.

Compound `COCCN1C[C@@H](NC(=O)Nc2c(C)c(OC[C@@H](O)COC)nn2-c2ccccc2)[C@H](c2cc(F)c(F)c(F)c2)C1` [Example 564, 1-(3-((S)-2-hydroxy-3-methoxypropoxy)-4-methyl-1-phenyl-1H-pyrazol-5-yl)-3-((3S,4R)-1-(2-methoxyethyl)-4-(3,4,5-trifluorophenyl)pyrrolidin-3-yl)urea] displayed an IC50 of less than 100 nM.

On to `CCN1C[C@@H](NC(=O)Nc2c3c(nn2-c2ccccc2)CCC3)[C@H](c2ccccc2)C1` (relative stereo) [Example 193, 1-((trans)-1-ethyl-4-phenylpyrrolidin-3-yl)-3-(2-phenyl-2,4,5,6-tetrahydrocyclopenta[c]pyrazol-3-yl)urea], for which the IC50 fell in the range of 100 to 1000 nM.

Compound `COCCN1C[C@@H](NC(=O)Nc2c(C)c(-c3ccccc3)nn2-c2ccccc2)[C@H](c2ccc(F)cc2)C1` [Example 331, 1-((3S,4R)-4-(4-fluorophenyl)-1-(2-methoxyethyl)pyrrolidin-3-yl)-3-(4-methyl-1,3-diphenyl-1H-pyrazol-5-yl)urea] yielded an IC50 of less than 100 nM.

As to `COCCN1C[C@@H](NC(=O)Nc2c(Cl)c(C3CCN(S(=O)(=O)C(F)(F)F)CC3)nn2-c2ccccc2)[C@H](c2ccc(F)c(F)c2)C1` [Example 594, 1-(4-chloro-1-phenyl-3-(1-(trifluoromethylsulfonyl)piperidin-4-yl)-1H-pyrazol-5-yl)-3-((3S,4R)-4-(3,4-difluorophenyl)-1-(2-methoxyethyl)pyrrolidin-3-yl)urea hydrochloride], the IC50 was less than 100 nM.

For the compound `Cc1c(OCC#N)nn(-c2ccccc2)c1NC(=O)N[C@@H]1CN(Cc2csnn2)C[C@H]1c1ccc(F)c(F)c1` [Example 250, 1-((3S,4R)-1-((1,2,3-thiadiazol-4-yl)methyl)-4-(3,4-difluorophenyl)pyrrolidin-3-yl)-3-(3-(cyanomethoxy)-4-methyl-1-phenyl-1H-pyrazol-5-yl)urea], the half-inhibitory concentration (IC50) was less than 100 nM.

As for `COCCN1C[C@@H](NC(=O)Nc2c3c(nn2-c2ccnnc2)CCC3)[C@H](c2ccc(F)c(F)c2)C1` [Example 395, 1-((3S,4R)-4-(3,4-difluorophenyl)-1-(2-methoxyethyl)pyrrolidin-3-yl)-3-(2-(pyridazin-4-yl)-2,4,5,6-tetrahydrocyclopenta[c]pyrazol-3-yl)urea], the half-inhibitory concentration (IC50) lay in the range of 100 to 1000 nM.

As to `COCCN1C[C@@H](NC(=O)Nc2c3c(nn2-c2ccccc2)CS(=O)(=O)C3)[C@H](c2ccccc2)C1` [Example 172, 1-(5,5-dioxido-2-phenyl-4,6-dihydro-2H-thieno[3,4-c]pyrazol-3-yl)-3-((3S,4R)-1-(2-methoxyethyl)-4-phenylpyrrolidin-3-yl)urea], the half-inhibitory concentration (IC50) is less than 100 nM.

`CNC(=O)c1ccc(-c2cc(NC(=O)N[C@@H]3CN(CCOC)C[C@H]3c3ccc(F)c(F)c3)n(C)n2)cc1` [Example 163, 4-(5-(3-((3S,4R)-4-(3,4-difluorophenyl)-1-(2-methoxyethyl)pyrrolidin-3-yl)ureido)-1-methyl-1H-pyrazol-3-yl)-N-methylbenzamide] returned a half-inhibitory concentration (IC50) of less than 100 nM.

In turn, `COCCN1C[C@@H](NC(=O)Nc2c3c(nn2-c2ccccc2)CCC3)[C@H](c2ccncc2)C1` (relative stereo) [Example 38, 1-(trans-1-(2-methoxyethyl)-4-(pyridin-4-yl)pyrrolidin-3-yl)-3-(2-phenyl-2,4,5,6-tetrahydrocyclopenta[c]pyrazol-3-yl)urea] came in with an IC50 of less than 100 nM.

As for `CNC(=O)c1nn(-c2ccccc2)c(NC(=O)N[C@@H]2CN(CCOC)C[C@H]2c2ccc(F)c(F)c2)c1Br` [Example 554, 4-bromo-5-(3-((3S,4R)-4-(3,4-difluorophenyl)-1-(2-methoxyethyl)pyrrolidin-3-yl)ureido)-N-methyl-1-phenyl-1H-pyrazole-3-carboxamide], the half-maximal inhibitory concentration (IC50) was less than 100 nM.

`CCOc1nn(-c2ccccc2)c(NC(=O)N[C@@H]2CN(CCOC)C[C@H]2c2cccc(C(F)(F)F)c2)c1C` (relative stereo) [Example 335, 1-(3-ethoxy-4-methyl-1-phenyl-1H-pyrazol-5-yl)-3-(trans-1-(2-methoxyethyl)-4-(3-(trifluoromethyl)phenyl)pyrrolidin-3-yl)urea] yielded an IC50 of less than 100 nM.

`COCCN1C[C@@H](NC(=O)Nc2cc(-c3ccc(C(=O)O)cc3)nn2C)[C@H](c2ccc(F)c(F)c2)C1` [Example 161, 4-(5-(3-((3S,4R)-4-(3,4-difluorophenyl)-1-(2-methoxyethyl)pyrrolidin-3-yl)ureido)-1-methyl-1H-pyrazol-3-yl)benzoic acid] came in with a half-maximal inhibitory concentration (IC50) of less than 100 nM.

Turning to `CNC(=O)c1nn(-c2ccccc2)c(NC(=O)N[C@@H]2CN(CCOC)C[C@H]2c2ccc(F)c(F)c2)c1C` [Example 459, 5-(3-((3S,4R)-4-(3,4-difluorophenyl)-1-(2-methoxyethyl)pyrrolidin-3-yl)ureido)-N,4-dimethyl-1-phenyl-1H-pyrazole-3-carboxamide], the IC50 is less than 100 nM.
